The record followed here is patent publication US10085998B2, “Salts of potassium ATP channel openers and uses thereof” (Essentialis, Inc., priority 2006, dated 2018).

Values after ≈ are worked out from the molar mass of the structure shown.

A short description of data set [1]: Moisture sorption analysis. It is filed as physicochemical. The following applies: for Hysteresis upon desorption / hydrate formation: desorption scan.
Protocol: Moisture Sorption Analysis was performed with a Hiden IGAsorp Moisture Sorption Instrument. Samples were first dried at 0% relative humidity at 25° C. until an equilibrium weight was reached, or for a maximum of 4 hours. Samples were then subjected to an isothermal (25° C.) scan from 10-90% relative humidity in steps of 10%. The samples were allowed to equilibrate to an asymptotic weight at each point for a maximum of 4 hours. Following absorption, a desorption scan from 85% relative humidity (at 25° C.) was run in steps of −10%, again allowing a maximum of 4 hours for the samples to equilibrate. The resulting samples after desorption were dried at 80° C. for two hours and analyzed by XRPD.
A short description of data set [2]: Additional solubility studies in 100 mM phosphate buffer (HPLC). It is filed as physicochemical. The following applies: pH 7.3, aqueous buffer, thermodynamic from solid, pH 7.30, pH after 18 h slurry 7.31, ambient temperature. Here is the method:
Each determination was carried out in duplicate, slurrying each sample in a 100 mM phosphate buffer solution, pH 7.00. […] After this time all samples were centrifuged, and the supernatant was diluted with mobile phase (MeCN/Water.).

Data set [3] is described as follows: Slurry studies (inter-conversion of the solid form). Particulars: room temperature, no light, water, isopropyl alcohol, dichloromethane and toluene, 14 days.
Protocol: Slurry experiments were performed on each form to determine propensity for conversion and to see if a unique form could be generated.
Data set [4] can be described thus: Form conversion and degradation under thermal stress. The following applies: 60° C., closed, protected from light, 7 and 14 days. The method, then:
Studies were also conducted to evaluate the likelihood for conversion and degradation under thermal stress.

What is called solubility is the concentration that dissolves in the medium under given conditions. A lower solubility goes with a poorly soluble substance. As for `CC1=NS(=O)(=O)c2cc(Cl)ccc2N1` [free form diazoxide, 7-chloro-3-methyl-2H-1,2,4-benzothiadiazine 1, 1 dioxide, reference compound], the “Hysteresis upon desorption / hydrate formation” value was “does not form a stable hydrate” in data set [1] (25° C.) and “no hysteresis” in data set [1] (25° C., listed as Free form). Also, in data set [1] (25° C., relative humidity scan), the “Moisture sorption: hygroscopicity” value is reported as “non-hygroscopic”. The “Water absorbed at 60% RH” value in data set [1] (25° C., 60% RH) is “approximately 0.04 wt %”. Moreover, the “Water absorbed at 90% RH” value in data set [1] (25° C., 90% RH) is recorded as roughly 0.20 wt %. Besides, the “XRPD pattern following the moisture sorption/desorption analysis” value in data set [1] (after moisture sorption experiment) is on record as “same crystalline form”. The same molecule registered a solubility at 18 h in data set [2] of 70 µg/mL (≈ 303 µM). Further, the “Slurry study: conversion of solid form” value in data set [3] is “did not convert to alternate crystal forms”. In data set [4], the “Form conversion and degradation under thermal stress (XRPD, DSC)” value is “no conversion or degradation”.
